How the values were obtained:
[1] = test system: MCF-7 breast cancer cells; assay: MUH proliferation assay, MCF-7; type: cell-based; conditions: MCF-7, rising concentrations 0.1 μM to 100 μM, 48 hours
Method: FIG. 6: 6-PN and 8-PN inhibit the growth of MCF-7 and HT-29. (A, B) MUH proliferation assay of HT-29 colon cancer cells and MCF-7 breast cancel cells treated with increasing concentrations of 6-PN and 8-PN (0.1 μM to 100 μM) for 48 hours. Shown are the mean±S.A.; the experiments were performed in quadruplicates.
The cells were seeded in triplicates in 96-well plates at a density of 2,500 cells per well in 50 μl medium (5×10^4 cells per milliliter). After 24 hours, the medium was replaced by medium containing 6-PN, 8-PN (dissolved in DMSO), TSA (dissolved in EtOH) or SAHA (dissolved in DMSO) at the concentrations to be tested with or without the addition of the necrosis inhibitor IM-54 at 5 μM (Calbiochem, Darmstadt, Germany). Cells treated with culture medium without or with DMSO served as controls. The assay was started following an incubation of 24 hours. The medium was discarded, each well was washed two times with PBS (without Ca^++ and Mg^++) and 100 μl of a solution containing […] of 4-methyl umbellipheryl heptanoate per ml PBS was added. Plates were incubated at 37° C. for 1 hour and measured in a Fluoroskan II (Lab Systems, Helsinki, Finland) with a […]. The intensity of fluorescence indicates the number of viable cells in the wells. […]

[2] = test system: foreskin melanocytes (HEM1); assay: MUH proliferation assay, melanocytes; type: cell-based; conditions: 6-PN, 8-PN at higher concentrations (0.1 μM to 100 μM tested); TSA, SAHA 100 μM
Method: FIG. 5: real time cell monitoring of BLM and SK-MEL-28 melanoma cells treated with 6-PN and 8-PN. (A) BML and SK-MEL-28 cells were treated 24 hours after seeding with different concentrations of 6-PN and 8-PN (20 μM, 50 μM and 100 μM) over a 104 hour time period. The cellular impedance was measured over the entire observation time using the xCELLigence™ SP system and is depicted by the cell index (CI). All CI-values were normalized shortly before the treatment started. […] As a positive control, Triton X-100 0.1% was used to induce cell death. Shown are the mean±SD of three independent experiments, each performed in triplicates (B, C). […] Shown are the mean±SD; the experiments were performed in quadruplicates. (D) The MUH proliferation assay was repeated unter the same treatment conditions on primary human fibroblasts (FF868) and melanocytes (HEM1).
The cells were seeded in triplicates in 96-well plates at a density of 2,500 cells per well in 50 μl medium (5×10^4 cells per milliliter). After 24 hours, the medium was replaced by medium containing 6-PN, 8-PN (dissolved in DMSO), TSA (dissolved in EtOH) or SAHA (dissolved in DMSO) at the concentrations to be tested with or without the addition of the necrosis inhibitor IM-54 at 5 μM (Calbiochem, Darmstadt, Germany). Cells treated with culture medium without or with DMSO served as controls. The assay was started following an incubation of 24 hours. […] Plates were incubated at 37° C. for 1 hour and measured in a Fluoroskan II (Lab Systems, Helsinki, Finland) with a […]. The intensity of fluorescence indicates the number of viable cells in the wells.
Next it was asked whether the PNs also influence the proliferation of benign cells. To this end, human fibroblasts (FF) and foreskin melanocytes (HEM1) were treated with the same concentrations of 6-PN and 8-PN, and proliferation was assessed using the proliferation assay as described above.

angiogenesis = conditions: chorioallantois membrane assays in vivo; cited from earlier work
BLM melanoma cells = assay: FACS cell cycle analysis (PI), BLM; type: cell-based, human; conditions: 100 μM, 48 hours
Method: (§1) (A) Cell cycle FACS analyses of PI stained BLM and SK-MEL-28 melanoma cells. 100 μM of 8-PN-induced a G2 arrest in both cells. (B) FACS analyses of BLM and SK-MEL-28 melanoma cells treated with 100 μM 6-PN or 8-PN and stained for annexin V/PI; staurosporin was used as control for apoptosis induction and DMSO as vehicle control. […] (C) BLM and SK-MEL-28 melanoma cells were treated with 100 μM of PNs; TSA, SAHA and EMSO were used as controls.
To further analyze the possibility of apoptosis induction, an extensive apoptosis assay was performed on SK-MEL-28 melanoma cells 4 hours after treatment with 100 μM 6-PN or 8-PN (FIG. 9). […] This was verified by FACS cell cycle analyses to screen for a possible increase of the sub-G1 fraction of cells (apoptotic cells) or for the induction of a G2 arrest (inhibition of proliferation). […] To further differentiate between the induction of apoptosis and/or necrosis an PI/Annexin V staining of SK-MEL-28 and BLM cells was performed 4 hours and 24 hours after the treatment with 6-PN or 8-PN; 10 μM staurosporin (6 hours treatment) was used as positive control for the induction of apoptosis; DMSO treatment was used as vehicle control. The cells were then analyzed by FACS.

[3] = test system: LC3 in SK-MEL-28 melanoma cells; assay: Western blot LC3 (autophagy), SK-MEL-28; type: cell-based, human; conditions: SK-MEL-28, 100 μM, after 12-24 hours
Method: as §1
The following antibodies were used: Anti-Vinculin and Anti-Actin (1:5000, Sigma-Aldrich), Anti-Acetyl-Histon H3 (1:5000, Millipore, Billerica, USA), Anti-Caspase-3 (1:1000), Anti-AKT, Anti-pAKT, Anti-ERK, Anti-pERK, […], Anti-p70S6 Kinase, and Anti-pS6 protein (1:1000), all from Cell Signaling, Frankfurt, Germany), Anti-LC3 (1:5000, Sigma-Aldrich).
Since it has been speculated that the formation of intracytoplasmic vacuoles in pancreatic or breast cancer cells by 6-PN and 8-PN observed in pervious studies might represent an induction of autophagy, this issue was further investigated on a molecular level. BLM and SK-MEL-28 melanoma cells were treated with 100 μM of 6-PN, 8-PN, SAHA or TSA (and with DMSO as control), and the treated cells were lysed for protein extraction after 1 hour, 2 hours, 4 hours, 12 hours and 24 hours. […]

[4] = test system: angiogenesis induced by basic fibroblast growth factor and vascular endothelial growth factor; conditions: induced by bFGF and VEGF, three-dimensional collagen gel in vitro; cited from earlier work

What does the source list for `CC(C)=CCc1c(O)cc(O)c2c1OC(c1ccc(O)cc1)CC2=O` (stereo not shown) [8-PN, 5,7-Dihydroxy-2-(4-hydroxy-phenyl)-8-(3-methyl-but-2-enyl)-chroman-4-one]?
cell proliferation [1]: severe reduction; melanocyte proliferation [2]: markedly decreased; angiogenesis (angiogenesis): inhibits the angiogenesis; sub-G1 fraction (apoptotic cells) (BLM melanoma cells): remained unaffected; cells in the G2 phase (BLM melanoma cells; DMSO control 30.4%): 99.6%; shift from LC3-I to LC3-II (autophagy) [3]: clearly induced the shift; angiogenesis [4]: inhibits the angiogenesis

From US20160067211A1, “PHARMACEUTICAL COMPOSITION” (Eberhard Karls Universitaet Tuebingen Medizinische Fakultaet, priority 2013, published 2016)
